Source: patent publication US20210261621A1, “Preparation of Dilipid Polymixins and Use Thereof as Antimicrobial Adjuvants” (priority 2018, published 2021)
In brackets after ≈: the same amount, converted by molar mass. Read-outs that look alike come from different tables or passages of the source. Positions of bridges follow the written chain, without caps; N, C: chain ends. Non-standard residues stand in square brackets, D forms with d. Residues, ends and D or L forms follow the SMILES beside them. *: point of attachment. Lauroyl = CCCCCCCCCCCC(=O)*; Dab = NCC[C@H](N)C(=O)O

Columns and labels:
P. aeruginosa PAO1 = tested on: P. aeruginosa PAO1; design: MICDrug / MICDrug in combo / MIC of adjuvant in combo: unit not given beside the values
pig erythrocytes = conditions: red cells of pig, 1 h, 512
Method: The ability of the compounds to lyse eukaryotic red blood cells was measured by the amount of hemoglobin released upon incubation with pig erythrocytes, following a published protocol [30]. Briefly, fresh pig blood (generously provided by Dr. Richard Hodges, Director of Animal Care and Veterinary Services of the University of Manitoba) drawn from a pig's antecubital vein was centrifuged at 1000 g for 5 min at 4° C., washed with phosphate-buffered saline (PBS) three times, and re-suspended in the same buffer, consecutively. Compounds at study were 2-fold serially diluted in PBS on a 96-well plate and mixed with equal volumes of erythrocyte solution. Post 1 h incubation at 37° C., the intact cells were pelleted by centrifugation at 1000 g for 5 min at 4° C. Resulting supernatant was then transferred to a new 96-well plate. The hemoglobin released was then measured via an EMax Plus microplate reader (Molecular Devices, USA) at 570 nm wavelength. Erythrocytes in PBS with or without 0.1% Triton X-100 were used as positive or negative control, respectively.

[1] = tested on: E. coli CANWARD-2011 97615; type: cell-based, Escherichia coli
How it was run: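 Susceptibility is determined by broth microdilution in Mueller-Hinton broth according to CLSI. Compounds are serially diluted 2-fold and challenged with about 5×10^5 CFU/mL bacteria for 18 h at 37° C.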

## CCCCCCCCCCCC(=O)NCC[C@H](NC(=O)CCCCCCCCCCC)C(=O)N[C@H](C(=O)N[C@@H](CCN)C(=O)N[C@H]1CCNC(=O)[C@H]([C@@H](C)O)NC(=O)[C@H](CCN)NC(=O)[C@H](CCN)NC(=O)[C@H](CC(C)C)NC(=O)[C@@H](Cc2ccccc2)NC(=O)[C@H](CCN)NC1=O)[C@@H](C)O [Compound 3, Didodecanoic Acid (Di-C12) Polymyxin] (Lauroyl-[Dab](Lauroyl)T[Dab][Dab][Dab][dF]L[Dab][Dab]T; lactam 4-C)
P. aeruginosa PAO1; adjuvant alone, one value per checkerboard, in µg/mL
  MIC of adjuvant alone (MIC1, MIC2, MIC3, MIC4, MIC5, MICPMBN): 32
P. aeruginosa PAO1; combination with Aztreonam
  Interpretation: Additive (An FIC index of ≤0.5, 0.5<x≤4, or >4 denotes for synergistic, additive or antagonistic interaction, respectively)
P. aeruginosa PAO1; combination with Ceftazidime
  Interpretation: Additive (An FIC index of ≤0.5, 0.5<x≤4, or >4 denotes for synergistic, additive or antagonistic interaction, respectively)
P. aeruginosa PAO1; combination with Chloramphenicol
  Interpretation: Additive (An FIC index of ≤0.5, 0.5<x≤4, or >4 denotes for synergistic, additive or antagonistic interaction, respectively)
P. aeruginosa PAO1; combination with Ciprofloxacin
  Interpretation: Additive (An FIC index of ≤0.5, 0.5<x≤4, or >4 denotes for synergistic, additive or antagonistic interaction, respectively)
P. aeruginosa PAO1; combination with Clindamycin
  Interpretation: Additive (An FIC index of ≤0.5, 0.5<x≤4, or >4 denotes for synergistic, additive or antagonistic interaction, respectively)
P. aeruginosa PAO1; combination with Doripenem
  Interpretation: Additive (An FIC index of ≤0.5, 0.5<x≤4, or >4 denotes for synergistic, additive or antagonistic interaction, respectively)
P. aeruginosa PAO1; combination with Doxycycline
  Interpretation: Additive (An FIC index of ≤0.5, 0.5<x≤4, or >4 denotes for synergistic, additive or antagonistic interaction, respectively)
P. aeruginosa PAO1; combination with Fosfomycin
  Interpretation: Additive (An FIC index of ≤0.5, 0.5<x≤4, or >4 denotes for synergistic, additive or antagonistic interaction, respectively)
P. aeruginosa PAO1; combination with Gentamicin
  Interpretation: Additive (An FIC index of ≤0.5, 0.5<x≤4, or >4 denotes for synergistic, additive or antagonistic interaction, respectively)
P. aeruginosa PAO1; combination with Linezolid
  Interpretation: Additive (An FIC index of ≤0.5, 0.5<x≤4, or >4 denotes for synergistic, additive or antagonistic interaction, respectively)
P. aeruginosa PAO1; combination with Meropenem
  Interpretation: Additive (An FIC index of ≤0.5, 0.5<x≤4, or >4 denotes for synergistic, additive or antagonistic interaction, respectively)
P. aeruginosa PAO1; combination with Minocycline
  Interpretation: Additive (An FIC index of ≤0.5, 0.5<x≤4, or >4 denotes for synergistic, additive or antagonistic interaction, respectively)
P. aeruginosa PAO1; combination with Moxifloxacin
  Interpretation: Additive (An FIC index of ≤0.5, 0.5<x≤4, or >4 denotes for synergistic, additive or antagonistic interaction, respectively)
P. aeruginosa PAO1; combination with Novobiocin
  Interpretation: Additive (An FIC index of ≤0.5, 0.5<x≤4, or >4 denotes for synergistic, additive or antagonistic interaction, respectively)
P. aeruginosa PAO1; combination with Piperacillin
  Interpretation: Additive (An FIC index of ≤0.5, 0.5<x≤4, or >4 denotes for synergistic, additive or antagonistic interaction, respectively)
P. aeruginosa PAO1; combination with Pleuromutilin
  Interpretation: Additive (An FIC index of ≤0.5, 0.5<x≤4, or >4 denotes for synergistic, additive or antagonistic interaction, respectively)
P. aeruginosa PAO1; combination with Rifampicin
  Interpretation: Additive (An FIC index of ≤0.5, 0.5<x≤4, or >4 denotes for synergistic, additive or antagonistic interaction, respectively)
P. aeruginosa PAO1; combination with Streptomycin
  Interpretation: Additive (An FIC index of ≤0.5, 0.5<x≤4, or >4 denotes for synergistic, additive or antagonistic interaction, respectively)
P. aeruginosa PAO1; combination with Tobramycin
  Interpretation: Additive (An FIC index of ≤0.5, 0.5<x≤4, or >4 denotes for synergistic, additive or antagonistic interaction, respectively)
P. aeruginosa PAO1; combination with Trimethoprim
  Interpretation: Additive (An FIC index of ≤0.5, 0.5<x≤4, or >4 denotes for synergistic, additive or antagonistic interaction, respectively)
P. aeruginosa PAO1; combination with Vancomycin
  Interpretation: Additive (An FIC index of ≤0.5, 0.5<x≤4, or >4 denotes for synergistic, additive or antagonistic interaction, respectively)
P. aeruginosa PAO1; in combination with Aztreonam
  MIC of adjuvant in combo: (16)
P. aeruginosa PAO1; in combination with Ceftazidime
  MIC of adjuvant in combo: (16)
P. aeruginosa PAO1; in combination with Chloramphenicol
  MIC of adjuvant in combo: (16)
P. aeruginosa PAO1; in combination with Ciprofloxacin
  MIC of adjuvant in combo: (0.25)
P. aeruginosa PAO1; in combination with Clindamycin
  MIC of adjuvant in combo: (16)
P. aeruginosa PAO1; in combination with Doripenem
  MIC of adjuvant in combo: (16)
P. aeruginosa PAO1; in combination with Doxycycline
  MIC of adjuvant in combo: (16)
P. aeruginosa PAO1; in combination with Fosfomycin
  MIC of adjuvant in combo: (8)
P. aeruginosa PAO1; in combination with Gentamicin
  MIC of adjuvant in combo: (0.25)
P. aeruginosa PAO1; in combination with Linezolid
  MIC of adjuvant in combo: (32)
P. aeruginosa PAO1; in combination with Meropenem
  MIC of adjuvant in combo: (16)
P. aeruginosa PAO1; in combination with Minocycline
  MIC of adjuvant in combo: (16)
P. aeruginosa PAO1; in combination with Moxifloxacin
  MIC of adjuvant in combo: (16)
P. aeruginosa PAO1; in combination with Novobiocin
  MIC of adjuvant in combo: (16)
P. aeruginosa PAO1; in combination with Piperacillin
  MIC of adjuvant in combo: (16)
P. aeruginosa PAO1; in combination with Pleuromutilin
  MIC of adjuvant in combo: (16)
P. aeruginosa PAO1; in combination with Rifampicin
  MIC of adjuvant in combo: (8)
P. aeruginosa PAO1; in combination with Streptomycin
  MIC of adjuvant in combo: (0.25)
P. aeruginosa PAO1; in combination with Tobramycin
  MIC of adjuvant in combo: (0.25)
P. aeruginosa PAO1; in combination with Trimethoprim
  MIC of adjuvant in combo: (16)
P. aeruginosa PAO1; in combination with Vancomycin
  MIC of adjuvant in combo: (16)
P. aeruginosa PAO1; result in words
  adjuvant activity (potentiation of the panel of 21 antibiotics): did not enhance the activity of any antibiotics
Pig erythrocytes
  % Hemolysis at 512 μg/mL of polymyxin: 49.7 ± 3.3%
[1]
  MIC: 64 µg/mL (≈ 44.8 µM)
